Measured values: article PMC2833169, “Anti-malarial activity of a non-piperidine library of next-generation quinoline methanols” (Malaria Journal, 2010)
pIC50: −log10 of the molar value. ≈ marks a conversion by molar mass, not a printed value. Where two headings read alike, the source gives them in different places.

Tests used:
[1] = test system: P. falciparum strain TM90C2A; assay: labeled hypoxanthine susceptibility assay, P. falciparum TM90C2A; assay type: cell-based, Plasmodium falciparum; conditions: for CSI (C2A/W2): ratio of IC90 C2A to IC90 W2
Protocol: (§1) The in vitro activities of quinoline methanols against P. falciparum strains W2, D6, TM91C235, and TM90C2A were evaluated using the traditional labeled hypoxanthine assay of Desjardins et al as modified by Milhous et al. These four P. falciparum strains were selected since they have various levels of resistance to conventional anti-malarials.

P. falciparum strain W2 = assay: labeled hypoxanthine susceptibility assay, P. falciparum W2; assay type: cell-based, Plasmodium falciparum; conditions: for IC90: Plasmodium falciparum
Protocol: as §1

[2] = test system: rodent macrophage (RAW) cell line; assay: cells; conditions: read-out: Macrophage IC50
Protocol: General cytotoxicity was assessed by first determining LC50 's against a rodent macrophage (RAW) cell line using the 3-(4,5-dimethylthiazole-2-yl)-2,5-diphenyltetrazolium bromide (MTT) assay as described in one of our earlier studies. This screen was conducted to identify compounds that may require de-selection due to generalized toxicity. […] In vitro neurocytotoxicity was assessed by determining LC50s against primary mouse neurons using the MTT assay as described previously. Inhibition of the A2A and A1 receptors was determined at 200 nM in duplicate by Caliper Biosciences (Hanover, Maryland).

P. falciparum strain D6 = assay: labeled hypoxanthine susceptibility assay, P. falciparum D6; assay type: cell-based, Plasmodium falciparum; conditions: for IC90: Plasmodium falciparum
Protocol: as §1

[3] = test system: P. falciparum strain TM91C235; assay: labeled hypoxanthine susceptibility assay, P. falciparum TM91C235; assay type: cell-based, Plasmodium falciparum; conditions: for IC90: Plasmodium falciparum, read-out: PF C235 IC90
Protocol: as §1

[4] = Plasmodium falciparum, TM90C2A, read-out: IC90 PfC2A
[5] = Plasmodium falciparum, TM90C2A, read-out: PF C2A IC90
[6] = D6, read-out: PF D6 IC90, P. falciparum D6

CCCCN(CCCC)CC(O)c1cc(C(F)(F)F)nc2c(C(F)(F)F)cccc12 (racemic) [WR176990]
IC90 [1, 4]: 44 nM

CCCNCC(O)c1cc(C(F)(F)F)nc2c(C(F)(F)F)cccc12 (racemic) [WR183544]
IC90 [1, 4]: 40 nM

OC(CNC1CCCCC1)c1cc(C(F)(F)F)nc2c(C(F)(F)F)cccc12 (racemic) [WR308248]
IC90 [1, 4]: 66 nM

OC(CNCCC1=CCCCC1)c1cc(C(F)(F)F)nc2c(C(F)(F)F)cccc12 (racemic) [WR308249]
IC90 [1, 4]: 160 nM

OC(CNCCc1ccccc1)c1cc(C(F)(F)F)nc2c(C(F)(F)F)cccc12 (racemic) [WR308253]
IC90 [1, 4]: 99 nM

CCN(CC)CC(O)c1cc(C(F)(F)F)nc2c(C(F)(F)F)cccc12 (racemic) [WR308254]
IC90 [1, 4]: 176 nM

CC(C)N(CC(O)c1cc(C(F)(F)F)nc2c(C(F)(F)F)cccc12)C(C)C (racemic) [WR308277]
IC90 [1, 4]: 75 nM

Cc1ccc(CNCC(O)c2cc(C(F)(F)F)nc3c(C(F)(F)F)cccc23)cc1 (racemic) [WR308375]
IC90 [1, 4]: 103 nM

CCCCN(CCC#N)CC(O)c1cc(C(F)(F)F)nc2c(C(F)(F)F)cccc12 (racemic) [WR308485]
IC90 [1, 4]: 204 nM

N#CCCN(CC(O)c1cc(C(F)(F)F)nc2c(C(F)(F)F)cccc12)C1CCCCC1 (racemic) [WR308486]
IC90 [1, 4]: 144 nM

OC(CNc1nc2ccccc2[nH]1)c1cc(C(F)(F)F)nc2c(C(F)(F)F)cccc12 (racemic) [WR308491]
IC90 [1, 4]: 190 nM

CC1CCN(CC(C)(C)NCC(O)c2cc(C(F)(F)F)nc3c(C(F)(F)F)cccc23)CC1 (racemic) [WR308592]
IC90 [1, 4]: 137 nM

CCCCN(CCCC)CC(O)c1cc(C(F)(F)F)nc2c(C(F)(F)F)cccc12 (racemic) [compound 176990]
IC90 (P. falciparum strain W2; W2, read-out: PF W2 IC90): 0.00239 µg/mL (≈ 0.00548 µM)
pIC50 ([2]; Mus musculus, Macrophage): 4.34
IC90 [1, 5]: 0.019 µg/mL
CSI (C2A/W2) [1]: 7.9
IC90 (P. falciparum strain D6; [6]): 0.011 µg/mL (≈ 0.0252 µM)
IC90 [3]: 0.027 µg/mL (≈ 0.0619 µM)

CCCCNCC(O)c1cc(C(F)(F)F)nc2c(C(F)(F)F)cccc12 (racemic) [compound 177000]
IC90 (P. falciparum strain W2; W2, read-out: PF W2 IC90): 0.00169 µg/mL (≈ 0.00444 µM)
pIC50 ([2]; Mus musculus, Macrophage): 5.11
IC90 [1, 5]: 0.0123 µg/mL
CSI (C2A/W2) [1]: 7.3
IC90 (P. falciparum strain D6; [6]): 0.00658 µg/mL (≈ 0.0173 µM)
IC90 [3]: 0.00891 µg/mL (≈ 0.0234 µM)

CCCNCC(O)c1cc(C(F)(F)F)nc2c(C(F)(F)F)cccc12 (racemic) [compound 183544]
IC90 (P. falciparum strain W2; W2, read-out: PF W2 IC90): 0.0011 µg/mL (≈ 0.003 µM)
IC90 [1, 5]: 0.016 µg/mL
CSI (C2A/W2) [1]: 14.5
IC90 (P. falciparum strain D6; [6]): 0.0067 µg/mL (≈ 0.0183 µM)
IC90 [3]: 0.014 µg/mL (≈ 0.0382 µM)

OC(CNC1CCCCC1)c1cc(C(F)(F)F)nc2c(C(F)(F)F)cccc12 (racemic) [compound 308248]
IC90 (P. falciparum strain W2; W2, read-out: PF W2 IC90): 0.00249 µg/mL (≈ 0.00613 µM)
pIC50 ([2]; Mus musculus, Macrophage): 4.70
IC90 [1, 5]: 0.027 µg/mL
CSI (C2A/W2) [1]: 10.8
IC90 (P. falciparum strain D6; [6]): 0.00957 µg/mL (≈ 0.0235 µM)
IC90 [3]: 0.0144 µg/mL (≈ 0.0353 µM)

OC(CNCCC1=CCCCC1)c1cc(C(F)(F)F)nc2c(C(F)(F)F)cccc12 (racemic) [compound 308249]
IC90 (P. falciparum strain W2; W2, read-out: PF W2 IC90): 0.00885 µg/mL (≈ 0.0205 µM)
pIC50 ([2]; Mus musculus, Macrophage): 4.57
IC90 [1, 5]: 0.0693 µg/mL
CSI (C2A/W2) [1]: 7.8
IC90 (P. falciparum strain D6; [6]): 0.033 µg/mL (≈ 0.0762 µM)
IC90 [3]: 0.0392 µg/mL (≈ 0.0906 µM)

OC(CNCCc1ccccc1)c1cc(C(F)(F)F)nc2c(C(F)(F)F)cccc12 (racemic) [compound 308253]
IC90 (P. falciparum strain W2; W2, read-out: PF W2 IC90): 0.00472 µg/mL (≈ 0.011 µM)
pIC50 ([2]; Mus musculus, Macrophage): 4.65
IC90 [1, 5]: 0.0425 µg/mL
CSI (C2A/W2) [1]: 9.0
IC90 (P. falciparum strain D6; [6]): 0.0191 µg/mL (≈ 0.0446 µM)
IC90 [3]: 0.0229 µg/mL (≈ 0.0536 µM)

CCN(CC)CC(O)c1cc(C(F)(F)F)nc2c(C(F)(F)F)cccc12 (racemic) [compound 308254]
IC90 (P. falciparum strain W2; W2, read-out: PF W2 IC90): 0.00901 µg/mL (≈ 0.0237 µM)
pIC50 ([2]; Mus musculus, Macrophage): 5.26
IC90 [1, 5]: 0.0669 µg/mL
CSI (C2A/W2) [1]: 7.4
IC90 (P. falciparum strain D6; [6]): 0.0264 µg/mL (≈ 0.0694 µM)
IC90 [3]: 0.0365 µg/mL (≈ 0.096 µM)

OC(CN1CCCC1)c1cc(C(F)(F)F)nc2c(C(F)(F)F)cccc12 (racemic) [compound 308268]
PF W2 IC90 (P. falciparum strain W2; P. falciparum W2): 0.01205 µg/mL
pIC50 ([2]; RAW macrophages, range in brackets): 5.07
PF C2A IC90 ([1]; P. falciparum TM90C2A): 0.09268 µg/mL
IC90 ([1]; calculated from ng/ml IC90 with MW in Column C, read-out: Pf C2A IC90 nM values calculated using MW in Column C): 245 nM
CSI (C2A/W2) [1]: 7.7
PF D6 IC90 (P. falciparum strain D6; P. falciparum D6): 0.04702 µg/mL
PF C235 IC90 ([3]; P. falciparum TM91C235): 0.04519 µg/mL

CC(C)N(CC(O)c1cc(C(F)(F)F)nc2c(C(F)(F)F)cccc12)C(C)C (racemic) [compound 308277]
IC90 (P. falciparum strain W2; W2, read-out: PF W2 IC90): 0.00452 µg/mL (≈ 0.0111 µM)
pIC50 ([2]; Mus musculus, Macrophage): 4.09
IC90 [1, 5]: 0.0305 µg/mL
CSI (C2A/W2) [1]: 6.7
IC90 (P. falciparum strain D6; [6]): 0.0195 µg/mL (≈ 0.0477 µM)
IC90 [3]: 0.0209 µg/mL (≈ 0.0512 µM)

Cc1ccc(CNCC(O)c2cc(C(F)(F)F)nc3c(C(F)(F)F)cccc23)cc1 (racemic) [compound 308375]
IC90 (P. falciparum strain W2; W2, read-out: PF W2 IC90): 0.00526 µg/mL (≈ 0.0123 µM)
pIC50 ([2]; Mus musculus, Macrophage): < 4.00
IC90 [1, 5]: 0.044 µg/mL
CSI (C2A/W2) [1]: 8.4
IC90 (P. falciparum strain D6; [6]): 0.0392 µg/mL (≈ 0.0916 µM)
IC90 [3]: 0.0443 µg/mL (≈ 0.103 µM)

CCCCN(CCC#N)CC(O)c1cc(C(F)(F)F)nc2c(C(F)(F)F)cccc12 (racemic) [compound 308485]
IC90 (P. falciparum strain W2; W2, read-out: PF W2 IC90): 0.00934 µg/mL (≈ 0.0216 µM)
pIC50 ([2]; Mus musculus, Macrophage): 4.33
IC90 [1, 5]: 0.0883 µg/mL
CSI (C2A/W2) [1]: 9.5
IC90 (P. falciparum strain D6; [6]): 0.0604 µg/mL (≈ 0.139 µM)
IC90 [3]: 0.059 µg/mL (≈ 0.136 µM)

N#CCCN(CC(O)c1cc(C(F)(F)F)nc2c(C(F)(F)F)cccc12)C1CCCCC1 (racemic) [compound 308486]
IC90 (P. falciparum strain W2; W2, read-out: PF W2 IC90): 0.00549 µg/mL (≈ 0.0119 µM)
pIC50 ([2]; Mus musculus, Macrophage): 4.73
IC90 [1, 5]: 0.0662 µg/mL
CSI (C2A/W2) [1]: 12.1
IC90 (P. falciparum strain D6; [6]): 0.0312 µg/mL (≈ 0.0678 µM)
IC90 [3]: 0.0413 µg/mL (≈ 0.0899 µM)

OC(CNc1nc2ccccc2[nH]1)c1cc(C(F)(F)F)nc2c(C(F)(F)F)cccc12 (racemic) [compound 308491]
IC90 (P. falciparum strain W2; W2, read-out: PF W2 IC90): 0.0219 µg/mL (≈ 0.0498 µM)
pIC50 ([2]; Mus musculus, Macrophage): 4.81
IC90 [1, 5]: 0.0835 µg/mL
CSI (C2A/W2) [1]: 3.8
IC90 (P. falciparum strain D6; [6]): 0.0482 µg/mL (≈ 0.11 µM)
IC90 [3]: 0.0716 µg/mL (≈ 0.163 µM)

CC1CCN(CC(C)(C)NCC(O)c2cc(C(F)(F)F)nc3c(C(F)(F)F)cccc23)CC1 (racemic) [compound 308592]
IC90 (P. falciparum strain W2; W2, read-out: PF W2 IC90): 0.00445 µg/mL (≈ 0.00932 µM)
pIC50 ([2]; Mus musculus, Macrophage): 4.42
IC90 [1, 5]: 0.0653 µg/mL
CSI (C2A/W2) [1]: 14.7
IC90 (P. falciparum strain D6; [6]): 0.0284 µg/mL (≈ 0.0594 µM)
IC90 [3]: 0.0625 µg/mL (≈ 0.131 µM)

OC(c1cc(C(F)(F)F)nc2c(C(F)(F)F)cccc12)C1CCCCN1 (stereo not shown) [142490 (MQ)]
IC90 (P. falciparum strain W2; P. falciparum W2, read-out: PF W2 IC90): 0.011 µg/mL (≈ 0.0291 µM)
pIC50 ([2]; Mus musculus, Macrophage): 5.14
IC90 [1, 5]: 0.071 µg/mL
IC90 ([1]; Plasmodium falciparum, TM90C2A, read-out: Pf C2A IC90 nM values calculated using MW in Column C): 171 nM
CSI (C2A/W2) [1]: 6.5
IC90 (P. falciparum strain D6; P. falciparum D6, read-out: PF D6 IC90): 0.025 µg/mL (≈ 0.0661 µM)
IC90 ([3]; P. falciparum TM91C235): 0.064 µg/mL (≈ 0.169 µM)
